Target: T1, recombinant Plk1 protein (Homo sapiens, UniProt P53350)
T1 construct: histidine tag (N); made in house; host or cells: SF9 insect cells
Assay: Plk1 kinase activity inhibition assay (33P-ATP, alpha casein substrate, flash plates)
Assay type: biochemical
Details: enzymatic assay, 100 nM Li-ATP, 80 minutes at 30° C.
In short: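 IC50 derived from radioactive flash-plate counts of 33P-labelled alpha casein after 80 min at 30 °C. Reaction: 100 nM 33P-containing ATP, 50–100 ng His-tagged Plk1 (SF9-expressed), 500 ng casein per well, HEPES pH 7.5 buffer with MgCl2/MnCl2.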

T1 sequence (P53350 whole entry): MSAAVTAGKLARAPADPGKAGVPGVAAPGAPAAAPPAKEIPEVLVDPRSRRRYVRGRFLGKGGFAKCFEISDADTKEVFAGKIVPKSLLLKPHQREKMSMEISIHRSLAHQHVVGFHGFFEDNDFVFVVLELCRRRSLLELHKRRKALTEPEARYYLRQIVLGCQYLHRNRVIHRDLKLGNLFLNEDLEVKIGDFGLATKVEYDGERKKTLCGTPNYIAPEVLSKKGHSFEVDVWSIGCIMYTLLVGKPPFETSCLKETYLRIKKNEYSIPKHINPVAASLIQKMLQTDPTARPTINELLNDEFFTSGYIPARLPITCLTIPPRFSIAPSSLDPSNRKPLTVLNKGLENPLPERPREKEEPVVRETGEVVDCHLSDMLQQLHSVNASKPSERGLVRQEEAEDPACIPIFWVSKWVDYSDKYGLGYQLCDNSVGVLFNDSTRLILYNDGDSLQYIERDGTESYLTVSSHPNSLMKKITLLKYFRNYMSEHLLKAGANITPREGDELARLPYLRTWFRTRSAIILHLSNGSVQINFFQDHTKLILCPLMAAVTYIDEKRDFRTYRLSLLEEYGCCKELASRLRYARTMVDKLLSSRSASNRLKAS

In the case of `NC(=O)c1sc(-n2cnc3ccncc32)cc1OCc1cccc(C(F)(F)F)c1` [Example 30, 5-(3H-imidazo[4,5-c]pyridin-3-yl)-3-{[3-(trifluoromethyl)benzyl]oxy}thiophene-2-carboxamide], the IC50 is reported as 100 to 1000 nM.
With `CC(Oc1cc(-n2cnc3cc(CN4CCS(=O)(=O)CC4)ncc32)sc1C(N)=O)c1ccccc1F` (stereo not drawn) [Example 161, 5-{6-[(1,1-dioxidothiomorpholin-4-yl)methyl]-3H-imidazo[4,5-c]pyridin-3-yl}-3-[-1-(2-fluorophenyl)ethoxy]thiophene-2-carboxamide] the IC50 was 1000 to 10000 nM.
`C[C@@H](Oc1cc(-n2cnc3cnc(CN4CCN(CC5CCN(C)CC5)CC4)cc32)sc1C(N)=O)c1ccccc1C(F)(F)F` [Example 85, 5-[6-({4-[(1-methylpiperidin-4-yl)methyl]piperazin-1-yl}methyl)-1H-imidazo[4,5-c]pyridin-1-yl]-3-{(1R)-1-[2-(trifluoromethyl)phenyl]ethoxy}thiophene-2-carboxamide] was tested, and the IC50 was 100 to 1000 nM.
Work on `COc1ccc2c(ncn2-c2cc(OCc3ccccc3C(F)(F)F)c(C(N)=O)s2)n1` [Example 23, 5-(5-methoxy-1H-imidazo[4,5-b]pyridin-1-yl)-3-{[2-(trifluoromethyl)benzyl]oxy}thiophene-2-carboxamide] yielded an IC50 of 10 to 100 nM.
`C[C@@H](Oc1cc(-n2cnc3cnc(CN4CCN(CC(=O)N(C)c5ccccc5)CC4)cc32)sc1C(N)=O)c1ccccc1C(F)(F)F` [Example 86, 5-{6-[(4-{2-[methyl(phenyl)amino]-2-oxoethyl}piperazin-1-yl)methyl]-1H-imidazo[4,5-c]pyridin-1-yl}-3-{(1R)-1-[2-(trifluoromethyl)phenyl]ethoxy}thiophene-2-carboxamide] showed an IC50 of 10 to 100 nM.
For `C[C@@H](Oc1cc(-n2cnc3cnc(CN4C[C@@H]5C[C@H]4CN5)cc32)sc1C(N)=O)c1ccccc1C(F)(F)F` [Example 95, 5-{6-[(1S,4S)-2,5-diazabicyclo[2.2.1]hept-2-ylmethyl]-1H-imidazo[4,5-c]pyridin-1-yl}-3-{(1R)-1-[2-(trifluoromethyl)phenyl]ethoxy}thiophene-2-carboxamide], the IC50 was under 10 nM.
Work on `C[C@@H](Oc1cc(-n2cnc3cnc(CO)cc32)sc1C(N)=O)c1ccccc1C(F)(F)F` [Example 25, 5-[6-(hydroxymethyl)-1H-imidazo[4,5-c]pyridin-1-yl]-3-{(1R)-1-[2-(trifluoromethyl)phenyl]ethoxy}thiophene-2-carboxamide] yielded an IC50 of under 10 nM.
Work on `NC(=O)c1sc(-n2cnc3cnc(CNC4CC4)cc32)cc1OCc1ccccc1C(F)(F)F` [Example 7, 5-{6-[(Cyclopropylamino)methyl]-1H-imidazo[4,5-c]pyridin-1-yl}-3-{[2-(trifluoromethyl)benzyl]oxy}thiophene-2-carboxamide] yielded an IC50 of 10 to 100 nM.
With `C[C@@H](Oc1cc(-n2cnc3cnc(CN4CCN(c5ccncc5)CC4)cc32)sc1C(N)=O)c1ccccc1C(F)(F)F` [Example 75, 5-{6-[(4-pyridin-4-ylpiperazin-1-yl)methyl]-1H-imidazo[4,5-c]pyridin-1-yl}-3-{(1R)-1-[2-(trifluoromethyl)phenyl]ethoxy}thiophene-2-carboxamide] the IC50 was 10 to 100 nM.
For `CCC(Oc1cc(-n2cnc3cnc(CN4CCN(CCN(C)C)CC4)cc32)sc1C(N)=O)c1ccccc1Cl` (stereo not drawn) [Example 151, 3-{[1-(2-chlorophenyl)propyl]oxy}-5-[6-({4-[2-(dimethylamino)ethyl]piperazin-1-yl}methyl)-1H-imidazo[4,5-c]pyridin-1-yl]thiophene-2-carboxamide], the IC50 was 100 to 1000 nM.
`NC(=O)c1sc(-n2cnc3ccncc32)cc1OCc1ccccc1OC(F)F` [Example 38, 3-{[2-(difluoromethoxy)benzyl]oxy}-5-(3H-imidazo[4,5-c]pyridin-3-yl)thiophene-2-carboxamide] gave an IC50 of 10 to 100 nM.
In the case of `C[C@@H](Oc1cc(-n2cnc3cnc(CN4CCN(CCN(C)C)CC4)cc32)sc1C(N)=O)c1ccccc1Cl` [Example 132, 3-[(1R)-1-(2-chlorophenyl)ethoxy]-5-[6-({4-[2-(dimethylamino)ethyl]piperazin-1-yl}methyl)-1H-imidazo[4,5-c]pyridin-1-yl]thiophene-2-carboxamide], the IC50 is reported as 10 to 100 nM.
`C[C@H](Oc1cc(-n2cnc3cnc(CO)cc32)sc1C(N)=O)c1ccccc1C(F)(F)F` [Example 46, 5-[6-(hydroxymethyl)-1H-imidazo[4,5-c]pyridin-1-yl]-3-{(1S)-1-[2-(trifluoromethyl)phenyl]ethoxy}thiophene-2-carboxamide] gave an IC50 of 100 to 1000 nM.
`CC(=O)N1CCN(Cc2cc3c(cn2)ncn3-c2cc(O[C@H](C)c3ccccc3C(F)(F)F)c(C(N)=O)s2)CC1` [Example 118, 5-{6-[(4-acetylpiperazin-1-yl)methyl]-1H-imidazo[4,5-c]pyridin-1-yl}-3-{(1R)-1-[2-(trifluoromethyl)phenyl]ethoxy}thiophene-2-carboxamide] showed an IC50 of 10 to 100 nM.
`C[C@@H](Oc1cc(-n2cnc3cnc(CN4CCN(c5ccccc5)CC4)cc32)sc1C(N)=O)c1ccccc1C(F)(F)F` [Example 59, 5-{6-[(4-phenylpiperazin-1-yl)methyl]-1H-imidazo[4,5-c]pyridin-1-yl}-3-{(1R)-1-[2-(trifluoromethyl)phenyl]ethoxy}thiophene-2-carboxamide] gave an IC50 of 10 to 100 nM.
In the case of `CCC(Oc1cc(-n2cnc3cnc(CO)cc32)sc1C(N)=O)c1ccccc1Cl` (stereo not drawn) [Example 56, 3-{[1-(2-chlorophenyl)propyl]oxy}-5-[6-(hydroxymethyl)-1H-imidazo[4,5-c]pyridin-1-yl]thiophene-2-carboxamide], the IC50 is reported as under 10 nM.
In the case of `COCCNC(=O)c1cc2c(cn1)ncn2-c1cc(OCc2ccccc2C(F)(F)F)c(C(N)=O)s1` [Example 4, 1-(5-Carbamoyl-4-{[2-(trifluoromethyl)benzyl]oxy}-2-thienyl)-N-(2-methoxyethyl)-1H-imidazo[4,5-c]pyridine-6-carboxamide], the IC50 is reported as 100 to 1000 nM.
Work on `CCCNCc1cc2c(cn1)ncn2-c1cc(O[C@H](C)c2ccccc2C(F)(F)F)c(C(N)=O)s1` [Example 113] yielded an IC50 of 10 to 100 nM.
`CC(Oc1cc(-n2cnc3cc(CN4CCOCC4)ncc32)sc1C(N)=O)c1ccccc1F` (stereo not drawn) [Example 158, 3-[-1-(2-fluorophenyl)ethoxy]-5-[6-(morpholin-4-ylmethyl)-3H-imidazo[4,5-c]pyridin-3-yl]thiophene-2-carboxamide] showed an IC50 of 1000 to 10000 nM.
`C[C@@H](Oc1cc(-n2cnc3cc(CN)ncc32)sc1C(N)=O)c1ccccc1C(F)(F)F` [Example 50, 5-[6-(aminomethyl)-3H-imidazo[4,5-c]pyridin-3-yl]-3-{(1R)-1-[2-(trifluoromethyl)phenyl]ethoxy}thiophene-2-carboxamide] showed an IC50 of 10 to 100 nM.
Work on `C[C@@H](Oc1cc(-n2cnc3cnc(CNCCO)cc32)sc1C(N)=O)c1ccccc1C(F)(F)F` [Example 104, 5-(6-{[(2-hydroxyethyl)amino]methyl}-1H-imidazo[4,5-c]pyridin-1-yl)-3-{(1R)-1-[2-(trifluoromethyl)phenyl]ethoxy}thiophene-2-carboxamide] yielded an IC50 of 10 to 100 nM.
With `CCC(Oc1cc(-n2cnc3cnc(CN4CCN(CCO)CC4)cc32)sc1C(N)=O)c1ccccc1Cl` (stereo not drawn) [Example 138, 3-{[1-(2-chlorophenyl)propyl]oxy}-5-(6-{[4-(2-hydroxyethyl)piperazin-1-yl]methyl}-1H-imidazo[4,5-c]pyridin-1-yl)thiophene-2-carboxamide] the IC50 was 10 to 100 nM.
Compound `N#Cc1ccccc1COc1cc(-n2cnc3cnccc32)sc1C(N)=O` [Example 39, 3-[(2-cyanobenzyl)oxy]-5-(1H-imidazo[4,5-c]pyridin-1-yl)thiophene-2-carboxamide] has an IC50 of 10 to 100 nM.
`NC(=O)c1sc(-n2cnc3ncccc32)cc1OCc1ccccc1C(F)(F)F` [Example 20, 5-(1H-Imidazo[4,5-b]pyridin-1-yl)-3-{[2-(trifluoromethyl)benzyl]oxy}thio-phene-2-carboxamide] was tested, and the IC50 was 100 to 1000 nM.
`CC(Oc1cc(-n2cnc3cnc(CN4CCN(C)CC4)cc32)sc1C(N)=O)c1ccccc1OC(F)F` (stereo not drawn) [Example 99, 3-{1-[2-(difluoromethoxy)phenyl]ethoxy}-5-{6-[(4-methylpiperazin-1-yl)methyl]-1H-imidazo[4,5-c]pyridin-1-yl}thiophene-2-carboxamide] showed an IC50 of under 10 nM.
With `CCc1ccccc1COc1cc(-n2cnc3cnc(CO)cc32)sc1C(N)=O` [Example 162, 3-[(2-ethylbenzyl)oxy]-5-[6-(hydroxymethyl)-1H-imidazo[4,5-c]pyridin-1-yl]thiophene-2-carboxamide] the IC50 was 10 to 100 nM.
`COc1cc2ncn(-c3cc(OCc4ccccc4C(F)(F)F)c(C(N)=O)s3)c2cn1` [Example 17, 5-(6-Methoxy-3H-imidazo[4,5-c]pyridin-3-yl)-3-{[2-(trifluoromethyl)benzyl]oxy}thiophene-2-carboxamide] was tested, and the IC50 was 10 to 100 nM.
In the case of `C[C@@H](Oc1cc(-n2cnc3cnc(CN4CCC(C(=O)N5CCN(C)CC5)CC4)cc32)sc1C(N)=O)c1ccccc1C(F)(F)F` [Example 91, 5-[6-({4-[(4-methylpiperazin-1-yl)carbonyl]piperidin-1-yl}methyl)-1H-imidazo[4,5-c]pyridin-1-yl]-3-{(1R)-1-[2-(trifluoromethyl)phenyl]ethoxy}thiophene-2-carboxamide], the IC50 is reported as 10 to 100 nM.
Compound `COCCN1CCN(Cc2cc3ncn(-c4cc(OC(C)c5ccccc5F)c(C(N)=O)s4)c3cn2)CC1` (stereo not drawn) [Example 157, 3-[-1-(2-fluorophenyl)ethoxy]-5-(6-{[4-(2-methoxyethyl)piperazin-1-yl]methyl}-3H-imidazo[4,5-c]pyridin-3-yl)thiophene-2-carboxamide] has an IC50 of 100 to 1000 nM.
For `C[C@@H](Oc1cc(-n2cnc3cnc(CN4CCC(N(C)C)CC4)cc32)sc1C(N)=O)c1ccccc1C(F)(F)F` [Example 65, 5-(6-{[4-(dimethylamino)piperidin-1-yl]methyl}-1H-imidazo[4,5-c]pyridin-1-yl)-3-{(1R)-1-[2-(trifluoromethyl)phenyl]ethoxy}thiophene-2-carboxamide], the IC50 was under 10 nM.
